Source: PubChem BioAssay AID248 (DTP/NCI, 2004)
“And” between values parts separate entries of the source, which are not always exact repeats. Equal entries are not always repeated. Toxic doses and inconclusive results are not listed.

System: L1210 leukemia ip in BDF1 mice, survival T/C
Assay: NCI In Vivo Anticancer Drug Screen. Data for tumor model L1210 Leukemia (intraperitoneal) in B6D2F1 (BDF1) mice
Conditions: endpoint: mean survival time, higher = longer survival
How it was run: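 Each compound was tested against a transplantable tumor grown in mice. The endpoint was survival, with treated animals benchmarked against vehicle controls as a simple ratio.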

[1] = dose: 12.5 mg/kg/injection, schedule: Q01DX009 (ip), vehicle: saline
[2] = dose: 25.0 mg/kg/injection, schedule: Q01DX009 (ip), vehicle: saline
[3] = dose: 100.0 mg/kg/injection, schedule: Q01DX001 (ip), vehicle: carboxymethylcellulose (CMC)
[4] = dose: 100.0 mg/kg/injection, schedule: Q01DX001 (ip), vehicle: saline with Tween-80
[5] = dose: 200.0 mg/kg/injection, schedule: Q01DX001 (ip), vehicle: saline with Tween-80
[6] = dose: 400.0 mg/kg/injection, schedule: Q01DX001 (ip), vehicle: saline with Tween-80
[7] = dose: 100.0 mg/kg/injection, schedule: Q04DX002 (ip), vehicle: Klucel (hydroxypropylcellulose) (HPC)
[8] = dose: 200.0 mg/kg/injection, schedule: Q04DX002 (ip), vehicle: Klucel (hydroxypropylcellulose) (HPC)
[9] = dose: 400.0 mg/kg/injection, schedule: Q04DX002 (ip), vehicle: Klucel (hydroxypropylcellulose) (HPC)
[10] = dose: 100.0 mg/kg/injection, schedule: Q04DX003 (ip), vehicle: saline
[11] = dose: 200.0 mg/kg/injection, schedule: Q04DX003 (ip), vehicle: saline
[12] = dose: 400.0 mg/kg/injection, schedule: Q04DX003 (ip), vehicle: saline
[13] = dose: 100.0 mg/kg/injection, schedule: Q01DX009 (ip), vehicle: saline with Tween-80
[14] = dose: 200.0 mg/kg/injection, schedule: Q01DX009 (ip), vehicle: saline with Tween-80
[15] = dose: 200.0 mg/kg/injection, schedule: Q01DX001 (ip), vehicle: saline
[16] = dose: 100.0 mg/kg/injection, schedule: Q01DX001 (ip), vehicle: saline
[17] = dose: 400.0 mg/kg/injection, schedule: Q01DX001 (ip), vehicle: saline
[18] = dose: 100.0 mg/kg/injection, schedule: Q01DX009 (ip), vehicle: Klucel (hydroxypropylcellulose) (HPC)
[19] = dose: 200.0 mg/kg/injection, schedule: Q01DX009 (ip), vehicle: Klucel (hydroxypropylcellulose) (HPC)
[20] = dose: 400.0 mg/kg/injection, schedule: Q01DX009 (ip), vehicle: Klucel (hydroxypropylcellulose) (HPC)

Cc1cc2ccccc2c[n+]1C
T/C [1]: 95 % of control | T/C (dose: 12.5 mg/kg/injection, schedule: Q04DX003 (ip), vehicle: saline): 106 % of control | T/C [2]: 101 % of control | T/C (dose: 25.0 mg/kg/injection, schedule: Q04DX003 (ip), vehicle: saline): 90 % of control | T/C (dose: 50.0 mg/kg/injection, schedule: Q01DX009 (ip), vehicle: saline): 108 % of control | T/C (dose: 50.0 mg/kg/injection, schedule: Q04DX003 (ip), vehicle: saline): 107 % of control

Cc1nc(N(C)C)nc(C)c1C#[N+][O-]
T/C [3]: 94 % of control

Nc1ncc(CCCCc2ccccc2)c(=O)[nH]1
T/C [4]: 96 % of control | T/C [5]: 93 % of control | T/C [6]: 98 % of control

Oc1ccccc1-c1nc2ccccc2[nH]1
T/C [7]: 109 % of control | T/C [8]: 98 % of control | T/C [9]: 95 % of control

CCCCCCCCCCCCCCCCCCN1CCS(=O)CC1
T/C (dose: 100.0 mg/kg/injection, schedule: Q01DX001 (ip), vehicle: Klucel (hydroxypropylcellulose) (HPC)): 98 % of control | T/C (dose: 200.0 mg/kg/injection, schedule: Q01DX001 (ip), vehicle: Klucel (hydroxypropylcellulose) (HPC)): 100 % of control | T/C (dose: 400.0 mg/kg/injection, schedule: Q01DX001 (ip), vehicle: Klucel (hydroxypropylcellulose) (HPC)): 102 % of control

FC(F)(F)c1cccc(NC(=S)NC(Cc2ccccc2)c2ccccc2)c1 (stereo not given)
T/C (dose: 100.0 mg/kg/injection, schedule: Q04DX002 (ip), vehicle: gum acacia): 104 % of control | T/C (dose: 200.0 mg/kg/injection, schedule: Q04DX002 (ip), vehicle: gum acacia): 98 % of control | T/C (dose: 400.0 mg/kg/injection, schedule: Q04DX002 (ip), vehicle: gum acacia): 92 % of control

O=C(c1ccccc1)C(O)(CC(c1ccccc1)[P+](c1ccccc1)(c1ccccc1)c1ccccc1)c1ccccc1 (stereo not given)
T/C (dose: 1.75 mg/kg/injection, schedule: Q01DX009 (ip), vehicle: saline): 93 % of control | T/C (dose: 3.5 mg/kg/injection, schedule: Q01DX009 (ip), vehicle: saline): 93 % of control | T/C (dose: 6.25 mg/kg/injection, schedule: Q01DX009 (ip), vehicle: Klucel (hydroxypropylcellulose) (HPC)): 102 % of control | T/C (dose: 12.5 mg/kg/injection, schedule: Q01DX009 (ip), vehicle: Klucel (hydroxypropylcellulose) (HPC)): 107 % of control | T/C [6]: 87 % of control

O=C(O)CCN1C/C(=C\c2ccccc2)C(=O)C1=O
T/C [10]: 101 % of control | T/C [11]: 101 % of control | T/C [12]: 101 % of control

CCC(=O)/C=C/C1=C(C)CCCC1(C)C
T/C [13]: 96 % of control | T/C [10]: 95 % of control | T/C [14]: 93 % of control | T/C [11]: 97 % of control | T/C [12]: 97 % of control

COCCCNCC(=O)N1CCN(C(=O)CNCCCOC)CC1
T/C (dose: 50.0 mg/kg/injection, schedule: Q01DX001 (ip), vehicle: carboxymethylcellulose (CMC)): 92 % of control | T/C [3]: 92 % of control | T/C (dose: 200.0 mg/kg/injection, schedule: Q01DX001 (ip), vehicle: carboxymethylcellulose (CMC)): 92 % of control | T/C (dose: 400.0 mg/kg/injection, schedule: Q01DX001 (ip), vehicle: carboxymethylcellulose (CMC)): 95 % of control

Cc1cccc[n+]1CCC(N)=O
T/C (dose: 6.25 mg/kg/injection, schedule: Q01DX009 (ip), vehicle: saline): 97 % of control | T/C [1]: 97 % of control | T/C [2]: 108 % of control

O=C(/C=C(\CBr)c1ccc(-c2ccccc2)cc1)c1ccccc1
T/C (dose: 50.0 mg/kg/injection, schedule: Q01DX001 (ip), vehicle: saline with Tween-80): 92 % of control | T/C [4]: 87 % of control and 89 % of control | T/C [5]: 91 % of control | T/C [6]: 94 % of control

COc1ccc(-n2cnc3c(=O)[nH]c(N)nc32)cc1
T/C [15]: 92 % of control

CCN1CCCC(Nc2nc(Nc3cc(Cl)cc(Cl)c3)nc3cc(Cl)ccc23)C1 (stereo not given)
T/C (dose: 100.0 mg/kg/injection, schedule: Q04DX003 (ip), vehicle: saline sonified): 95 % of control | T/C (dose: 200.0 mg/kg/injection, schedule: Q04DX003 (ip), vehicle: saline sonified): 97 % of control | T/C (dose: 400.0 mg/kg/injection, schedule: Q04DX003 (ip), vehicle: saline sonified): 106 % of control

CN(C)c1ccc(C=Nc2ccc(O)cc2)cc1
T/C [16]: 88 % of control | T/C [15]: 94 % of control | T/C [17]: 96 % of control

CN(Cc1cnc2nc(N)nc(N)c2n1)c1ccc(C(=O)NC(CCC(=O)O)C(=O)O)cc1I (stereo not given)
T/C (dose: 2.5 mg/kg/injection, schedule: Q01DX009 (ip), vehicle: sodium bicarbonate): 176 % of control | T/C (dose: 5.0 mg/kg/injection, schedule: Q01DX009 (ip), vehicle: sodium bicarbonate): 175 % of control | T/C (dose: 10.0 mg/kg/injection, schedule: Q01DX009 (ip), vehicle: sodium bicarbonate): 104 % of control

Cc1cccc(NC(=S)NC(=O)c2cccc([N+](=O)[O-])c2)c1C
T/C [13]: 104 % of control and 118 % of control | T/C (dose: 100.0 mg/kg/injection, schedule: Q04DX002 (ip), vehicle: saline with Tween-80): 88 % of control | T/C (dose: 100.0 mg/kg/injection, schedule: Q04DX003 (ip), vehicle: saline with Tween-80): 99 % of control | T/C [14]: 103 % of control and 104 % of control | T/C (dose: 200.0 mg/kg/injection, schedule: Q04DX002 (ip), vehicle: saline with Tween-80): 102 % of control | T/C (dose: 200.0 mg/kg/injection, schedule: Q04DX003 (ip), vehicle: saline with Tween-80): 101 % of control | T/C (dose: 400.0 mg/kg/injection, schedule: Q01DX009 (ip), vehicle: saline with Tween-80): 104 % of control | T/C (dose: 400.0 mg/kg/injection, schedule: Q04DX002 (ip), vehicle: saline with Tween-80): 98 % of control | T/C (dose: 400.0 mg/kg/injection, schedule: Q04DX003 (ip), vehicle: saline with Tween-80): 100 % of control

C1CC[N-]CC1.Oc1ccccc1C=NCCN=Cc1ccccc1O.[Co]
T/C (dose: 6.25 mg/kg/injection, schedule: Q04DX002 (ip), vehicle: saline with Tween-80): 90 % of control

CC(C)=CC(=O)OC1C2C(CC(C)C3C(O)CC(=O)C13C)OC(=O)C2C (stereo not given)
T/C [16]: 107 % of control | T/C [15]: 100 % of control | T/C [17]: 97 % of control

CC(=O)c1ccc2c(c1)Nc1ccccc1S2
T/C (dose: 50.0 mg/kg/injection, schedule: Q04DX003 (ip), vehicle: Klucel (hydroxypropylcellulose) (HPC)): 97 % of control | T/C [18]: 104 % of control and 102 % of control | T/C (dose: 100.0 mg/kg/injection, schedule: Q04DX003 (ip), vehicle: Klucel (hydroxypropylcellulose) (HPC)): 101 % of control | T/C [19]: 106 % of control and 94 % of control | T/C (dose: 200.0 mg/kg/injection, schedule: Q04DX003 (ip), vehicle: Klucel (hydroxypropylcellulose) (HPC)): 102 % of control | T/C [20]: 95 % of control and 91 % of control | T/C (dose: 400.0 mg/kg/injection, schedule: Q04DX003 (ip), vehicle: Klucel (hydroxypropylcellulose) (HPC)): 91 % of control

CC(=O)Nc1ccc(NC(=O)Nc2cccc(C(C)=O)c2)cc1
T/C [18]: 90 % of control | T/C [19]: 101 % of control | T/C [20]: 101 % of control

COc1cccc2c1CC/C(=C\c1cccnc1)C2=O
T/C (dose: 100.0 mg/kg/injection, schedule: Q04DX003 (ip), vehicle: carboxymethylcellulose (CMC)): 103 % of control | T/C (dose: 200.0 mg/kg/injection, schedule: Q04DX003 (ip), vehicle: carboxymethylcellulose (CMC)): 102 % of control | T/C (dose: 400.0 mg/kg/injection, schedule: Q04DX003 (ip), vehicle: carboxymethylcellulose (CMC)): 95 % of control

O=C(NC(=S)Nc1ccc(S(=O)(=O)c2ccc(NC(=S)NC(=O)c3ccccc3)cc2)cc1)c1ccccc1
T/C [18]: 102 % of control | T/C [7]: 94 % of control | T/C [19]: 94 % of control | T/C [8]: 94 % of control | T/C [20]: 91 % of control | T/C [9]: 102 % of control

Cn1cnc2c(=O)[nH]nnc21
T/C (dose: 100.0 mg/kg/injection, schedule: Q01DX005 (ip), vehicle: saline): 96 % of control | T/C (dose: 200.0 mg/kg/injection, schedule: Q01DX005 (ip), vehicle: saline): 112 % of control

NC(CCl)=NC1CN2CCC1CC2 (stereo not given)
T/C (dose: 25.0 mg/kg/injection, schedule: Q04DX002 (ip), vehicle: saline): 101 % of control | T/C (dose: 50.0 mg/kg/injection, schedule: Q04DX002 (ip), vehicle: saline): 90 % of control | T/C (dose: 100.0 mg/kg/injection, schedule: Q04DX002 (ip), vehicle: saline): 102 % of control
